Experimental data published in US20110250254A1, “ANTIMICROBIAL COMPOSITIONS AND USES” (priority 2008, published 2011).
Like-named read-outs stand apart in the source and are kept apart here.

Columns and labels:
Type in all cases: cell-based
marine bacteria [1] = assay: Coated stainless steel, MPN viable counts of desorbed bacteria; conditions: 14 days at 20° C., median values vs no coating
Method: (§1) Biological testing of coated stainless steel substrates were performed in a static cultures of marine bacteria. The biofilm prevention efficiencies of the coatings were recorded as a) total enumeration of bacteria attached on the steel surfaces and b) most-probable number (MPN) viability testing of attached bacteria. The nature of the thiophenes (expecting to inhibit biofilm generation without being toxic to the bacteria) should account for inhibition of both total counts and viability counts when thiophene-coated surfaces were compared to non-treated controls.
(§2) Three samples of stainless steel substrates were prepared as described above, each of these in triplicate. […]
(§3) At the end of the experimental period (14 days) the steel surfaces were removed from the media and carefully washed in sterile and particle-free (filtered through […] sterile filters) seawater. […] Desorbed concentrations of bacteria were recorded by epifluorescence microscopy and by MPN-counts in MB medium.
(§4) For epifluorescence microscopy 10 ml desorbed samples were stained with 2 μg 3′5-diamino phenylindol (DAPI) and incubated for 5-10 minutes. The stained samples were filtered through 0.2 μm black polycarbonate filters and analysed in a fluorescence microscope at 1250× magnification. […] The plates were incubated at 20° C. for 5 days and positive growth recorded as turbidity in the wells. […]

S. epidermidis [2] = assay: Static biofilm model on coated glass vials; conditions: incubation time 5 h, coating on glass vial
Method: The materials of Example 3 were tested in a static biofilm model as follows.
Triplicate samples of a coating composition were applied to a glass vial in accordance with Table 2 set out below where each vial is given a number. Vials 1 to 12 are each loaded with 13 mg of the indicated material, followed by the addition of 1.0 mL dichloromethane. The dichloromethane was slowly evaporated under atmospheric pressure to leave a coating on the internal walls of the receptacles. Vials 13 to 18 were each loaded by adding 10 mg of the indicated material pre-dissolved in 10 mL dichloromethane. These vials were heated in an oven at 125° C. for 24 hours. To remove any residues of the dichloromethane solvent, all vials were dried at high vacuum (0.5 mmHg) for 2 hours at room temperature.
The biofilm was assessed as described in Example 2.
It is possible in the example of the copolymer of C and D that bacteria are killed in addition to the inhibition of biofilm formation. Similar results were obtained in a static biofilm model where S. epidermis bacteria were incubated over a time period of 5 hours.

marine bacteria [3] = assay: Coated stainless steel, total counts of desorbed bacteria by epifluorescence microscopy; conditions: 14 days at 20° C., median values vs no coating
Method: as §1, §2, §3, §4

Pseudoalteromonas = assay: Static biofilm model, safranine staining; conditions: 4 h incubation
Method: (§5) According to the static biofilm model, a given thiophenone 200 μmol/L was dissolved in 500 μl absolute ethanol and applied to wells of a standard 24 well microtiter plate. The ethanol was evaporated from the wells in a laminar air sterile work bench at room temperature so as to leave a coating of the thiophenone in the well. A sample of bacteria was then added to the well and incubated for a given period of time. After incubation, the percentage of bacteria remaining was assessed by safranine staining of the biofilm. Bound safranine was released by acetic acid and optical density was measured in Synergy HT Multi-Detection Microplate Reader and compared to a control.

E. faecalis = assay: Static biofilm model, safranine staining; conditions: 4 h incubation
Method: as §5

V. harveyi [4] = assay: Static biofilm model, safranine staining; conditions: 4 h incubation
Method: as §5

S. epidermidis [5] = assay: Static biofilm model, safranine staining; conditions: 6 h incubation, thiophenone 200 μmol/L coating
Method: as §5

[6] = tested on: Vibrio harveyi BB886 (AI-1 reporter); assay: Bioluminescence assay of AI-1 quorum-sensing; conditions: compared with the corresponding furanone compound
Method: (§6) The effect of (Z)-5-(bromomethylene) thiophen-2(5H)-one on AI-1 and AI-2 quorum-sensing by bacteria was tested in a bioluminescence assay as follows:
(§7) Inhibition of quorum sensing was assessed as the ability of the furanone to reduce bioluminescence induced by cell free bacterial culture supernatant containing either AI-1 or AI-2 signal molecules. Vibrio harveyi BB886 was used as an AI-1 reporter and Vibrio harveyi BB170 was used as reporter of AI-2 communication.

[7] = tested on: Vibrio harveyi BB170 (AI-2 reporter); assay: Bioluminescence assay of AI-2 quorum-sensing; conditions: compared with the corresponding furanone compound
Method: as §6, §7

V. harveyi [8] = assay: Shaking biofilm model (200 rpm), safranine staining
Method: as §5
(§8) According to the shaking biofilm model, the microtiter plates were shaken (200 rpm) in a Minitron Incubator Shaker during biofilm formation.

S. epidermidis [9] = assay: as above; conditions: Staphylococcus epidermidis, S. epidermidis, read-out: Shaking biofilm model % Remaining
Method: as §5, §8

SMILES	Inhibition of viable attached bacteria (marine bacteria [1]) [%]	Static biofilm model % Remaining (S. epidermidis [2]) [%]	Inhibition of biofilm attachment (total counts) (marine bacteria [3]) [%]	Static biofilm model % Remaining (Pseudoalteromonas; coating) [%]	Static biofilm model % Remaining (Pseudoalteromonas; in medium) [%]	Static biofilm model % Remaining (E. faecalis; coating) [%]	Static biofilm model % Remaining (E. faecalis; in medium) [%]	Static biofilm model % Remaining (V. harveyi [4]; coating) [%]	Static biofilm model % Remaining (V. harveyi [4]; in medium) [%]	Static biofilm model % Remaining (S. epidermidis [5]) [%]	Inhibition of AI-1 quorum-sensing [6]	Inhibition of AI-2 quorum-sensing [7]	Shaking biofilm model % Remaining (V. harveyi [8]; 8 h incubation) [%]	Shaking biofilm model % Remaining (V. harveyi [8]; 18 h incubation) [%]	activity at 200 µM (S. epidermidis [9]; 6 h incubation) [%]	activity at 200 µM (S. epidermidis [9]; 20 h incubation) [%]
CCO[Si](CCCNC(=O)OCC1=C/C(=C/Br)SC1=O)(OCC)OCC [Compound F, (Z)-(5-bromomethylene-2-oxo-2,5-dihydrothiopen-3-yl)methyl 3-(triethoxysilyl)propylcarbamate]	> 99	45	~80	–	–	–	–	–	–	–	–	–	–	–	–	–
O=C1C=C/C(=C/Br)S1 [Thio101, (Z)-5-(bromomethylene) thiophen-2(5H)-one]	–	–	–	52	36	66	32	20	9	28	considerably more effective	considerably more effective	54	56	13	15
